Source: article PMC5218480 (PLoS ONE, 2017)

Test system: MV-4-11 cells
Assay: Gene expression microarray analysis (Affymetrix PrimeView) and GSEA
Type: cell-based, human
Set-up: RFU PODN (11730768_x_at) / Fold change /veh PODN (11730768_x_at) / RFU LINC00158 (11744669_a_at) / Fold change /veh LINC00158 (11744669_a_at) / RFU DUSP10 (11751237_a_at) / Fold change /veh DUSP10 (11751237_a_at) / RFU ID3 (11757404_x_at) / Fold change /veh ID3 (11757404_x_at) / RFU PLEKHG5 (11737974_s_at) / Fold change /veh PLEKHG5 (11737974_s_at) / RFU LRRC4B (11730491_at) / Fold change /veh LRRC4B (11730491_at) / RFU GIMAP4 (11747438_a_at) / Fold change /veh GIMAP4 (11747438_a_at) / RFU KRT8 (11758183_x_at) / Fold change /veh KRT8 (11758183_x_at) / RFU CNN1 (11734310_a_at) / Fold change /veh CNN1 (11734310_a_at) / RFU VPS37D (11726825_at) / Fold change /veh VPS37D (11726825_at) / RFU C10orf10 (11716522_x_at) / Fold change /veh C10orf10 (11716522_x_at) / RFU KIR2DL2 /// KIR2DL4 /// KIR2DL5A /// KIR2DL5B /// KIR2DS1 /// KIR2DS2 /// KIR2DS3 /// KIR2DS4 /// KIR3DL3 /// KIR3DL3 /// KIR3DS1 (11738374_at) / Fold change /veh KIR2DL2 /// KIR2DL4 /// KIR2DL5A /// KIR2DL5B /// KIR2DS1 /// KIR2DS2 /// KIR2DS3 /// KIR2DS4 /// KIR3DL3 /// KIR3DL3 /// KIR3DS1 (11738374_at) / RFU C1QL1 (11718748_at) / Fold change /veh C1QL1 (11718748_at) / RFU TMPRSS4 (11747572_a_at) / Fold change /veh TMPRSS4 (11747572_a_at) / RFU HAMP (11756126_x_at) / Fold change /veh HAMP (11756126_x_at) / RFU RNFT2 (11725882_a_at) / Fold change /veh RNFT2 (11725882_a_at) / RFU NR4A2 (11747474_a_at) / Fold change /veh NR4A2 (11747474_a_at) / RFU ABCC12 (11746883_a_at) / Fold change /veh ABCC12 (11746883_a_at) / RFU TMEM136 (11760407_x_at) / Fold change /veh TMEM136 (11760407_x_at) / RFU CLDN22 /// WWC2 (11732394_at) / Fold change /veh CLDN22 /// WWC2 (11732394_at) / RFU HLA-DPB1 (11760878_x_at) / Fold change /veh HLA-DPB1 (11760878_x_at) / RFU SPINT1 (11716480_a_at) / Fold change /veh SPINT1 (11716480_a_at) / RFU GAP43 (11754022_s_at) / Fold change /veh GAP43 (11754022_s_at) / RFU A4GNT (11735810_at) / Fold change /veh A4GNT (11735810_at) / RFU PRB3 (11715151_x_at) / Fold change /veh PRB3 (11715151_x_at) / RFU TUBB4B (11761932_at) / Fold change /veh TUBB4B (11761932_at) / RFU CAPN14 (11732068_a_at) / Fold change /veh CAPN14 (11732068_a_at) / RFU TMCC2 (11721928_a_at) / Fold change /veh TMCC2 (11721928_a_at) / RFU IRGQ (11745062_a_at) / Fold change /veh IRGQ (11745062_a_at) / RFU FAM174B (11720279_a_at) / Fold change /veh FAM174B (11720279_a_at) / RFU TMPRSS4 (11748680_a_at) / Fold change /veh TMPRSS4 (11748680_a_at) / RFU FAM212B (11763350_a_at) / Fold change /veh FAM212B (11763350_a_at) / RFU PLEKHG5 (11743358_a_at) / Fold change /veh PLEKHG5 (11743358_a_at) / RFU ZSCAN30 (11745921_a_at) / Fold change /veh ZSCAN30 (11745921_a_at) / RFU CMKLR1 (11741424_a_at) / Fold change /veh CMKLR1 (11741424_a_at) / RFU LOC101060620 /// MAPK8IP1 (11723275_at) / Fold change /veh LOC101060620 /// MAPK8IP1 (11723275_at) / RFU SPTSSB (11747773_x_at) / Fold change /veh SPTSSB (11747773_x_at) / RFU PRSS12 (11739890_at) / Fold change /veh PRSS12 (11739890_at) / RFU BIN1 (11741810_x_at) / Fold change /veh BIN1 (11741810_x_at) / RFU WNT11 (11732464_a_at) / Fold change /veh WNT11 (11732464_a_at) / RFU C10orf10 (11716521_a_at) / Fold change /veh C10orf10 (11716521_a_at) / RFU C5orf56 (11738089_at) / Fold change /veh C5orf56 (11738089_at) / RFU CYB561 (11721691_x_at) / Fold change /veh CYB561 (11721691_x_at) / RFU ANKRD19P (11752326_a_at) / Fold change /veh ANKRD19P (11752326_a_at) / RFU OR2T12 /// OR2T33 /// OR2T8 (11738714_s_at) / Fold change /veh OR2T12 /// OR2T33 /// OR2T8 (11738714_s_at) / RFU VCAN (11748164_a_at) / Fold change /veh VCAN (11748164_a_at) / RFU JSRP1 (11732532_at) / Fold change /veh JSRP1 (11732532_at) / RFU KRTAP10-11 (11738290_x_at) / Fold change /veh KRTAP10-11 (11738290_x_at) / RFU MYO3A (11730013_a_at) / Fold change /veh MYO3A (11730013_a_at) / RFU EBF3 (11725865_a_at) / Fold change /veh EBF3 (11725865_a_at) / RFU CAMK2N1 (11719241_x_at) / Fold change /veh CAMK2N1 (11719241_x_at) / RFU C5orf56 (11738088_a_at) / Fold change /veh C5orf56 (11738088_a_at) / RFU OLFML3 (11715873_a_at) / Fold change /veh OLFML3 (11715873_a_at) / RFU LOC100653217 /// NTM (11731650_a_at) / Fold change /veh LOC100653217 /// NTM (11731650_a_at) / RFU MAPK11 (11762145_a_at) / Fold change /veh MAPK11 (11762145_a_at) / RFU FIZ1 (11724087_x_at) / Fold change /veh FIZ1 (11724087_x_at) / RFU OASL (11726364_x_at) / Fold change /veh OASL (11726364_x_at) / RFU SOX15 (11748057_x_at) / Fold change /veh SOX15 (11748057_x_at) / RFU CD79A (11719716_a_at) / Fold change /veh CD79A (11719716_a_at) / RFU HIST1H1D (11736915_at) / Fold change /veh HIST1H1D (11736915_at) / RFU CASKIN2 (11723855_a_at) / Fold change /veh CASKIN2 (11723855_a_at) / RFU LOC730098 (11760151_x_at) / Fold change /veh LOC730098 (11760151_x_at) / RFU OR4N2 (11742367_at) / Fold change /veh OR4N2 (11742367_at) / RFU PRRT2 (11749266_a_at) / Fold change /veh PRRT2 (11749266_a_at) / RFU SNX32 (11753110_a_at) / Fold change /veh SNX32 (11753110_a_at) / RFU CDHR5 (11726645_a_at) / Fold change /veh CDHR5 (11726645_a_at) / RFU RCAN1 (11760418_a_at) / Fold change /veh RCAN1 (11760418_a_at) / RFU FAM167A (11723789_a_at) / Fold change /veh FAM167A (11723789_a_at) / RFU FAM26E (11764081_at) / Fold change /veh FAM26E (11764081_at) / RFU ISYNA1 (11749810_s_at) / Fold change /veh ISYNA1 (11749810_s_at) / RFU ACY1 (11761880_at) / Fold change /veh ACY1 (11761880_at) / RFU 11764098_at / Fold change /veh 11764098_at / RFU SAMD14 (11745864_x_at) / Fold change /veh SAMD14 (11745864_x_at) / RFU NPB (11741838_a_at) / Fold change /veh NPB (11741838_a_at) / RFU TMPRSS6 (11731388_a_at) / Fold change /veh TMPRSS6 (11731388_a_at) / RFU KRTAP10-2 (11738614_at) / Fold change /veh KRTAP10-2 (11738614_at) / RFU ARHGAP8 /// PRR5-ARHGAP8 (11727945_x_at) / Fold change /veh ARHGAP8 /// PRR5-ARHGAP8 (11727945_x_at) / RFU KRTAP5-7 /// NADSYN1 (11734609_at) / Fold change /veh KRTAP5-7 /// NADSYN1 (11734609_at) / RFU RASL12 (11751679_a_at) / Fold change /veh RASL12 (11751679_a_at) / RFU CDKN2B (11736163_a_at) / Fold change /veh CDKN2B (11736163_a_at) / RFU PRF1 (11729649_at) / Fold change /veh PRF1 (11729649_at) / RFU, ZNF638 /// ZNF638-IT1 / Fold change vs veh, ZNF638 /// ZNF638-IT1 / RFU, PANK3 / Fold change vs veh, PANK3 / RFU, SH3YL1 / Fold change vs veh, SH3YL1 / RFU, ZEB2 / Fold change vs veh, ZEB2 / RFU, NRIP1 / Fold change vs veh, NRIP1 / RFU, PTTG1IP / Fold change vs veh, PTTG1IP / RFU, CAPN2 / Fold change vs veh, CAPN2 / RFU, MED14 / Fold change vs veh, MED14 / RFU, SNORA58 / Fold change vs veh, SNORA58 / RFU, C1orf63 / Fold change vs veh, C1orf63 / RFU, LRRFIP1 / Fold change vs veh, LRRFIP1 / RFU, NDUFAF7 / Fold change vs veh, NDUFAF7 / RFU, SLC12A2 / Fold change vs veh, SLC12A2 / RFU, IBTK / Fold change vs veh, IBTK / RFU, ESF1 / Fold change vs veh, ESF1 / Fold change vs veh, TMEM50B / RFU, TAOK1 / Fold change vs veh, TAOK1 / RFU, ACBD3 / Fold change vs veh, ACBD3 / RFU, TMA16 / Fold change vs veh, TMA16 / RFU, RWDD3 / Fold change vs veh, RWDD3 / RFU, BCAT1 / Fold change vs veh, BCAT1 / RFU, EDEM3 / Fold change vs veh, EDEM3 / RFU, TMEM33 / Fold change vs veh, TMEM33 / RFU, WDR75 / Fold change vs veh, WDR75 / RFU, AHCTF1 / Fold change vs veh, AHCTF1 / RFU, TFRC / Fold change vs veh, TFRC / RFU, ZDHHC17 / Fold change vs veh, ZDHHC17 / RFU, NOM1 / Fold change vs veh, NOM1 / RFU, ARL8B / Fold change vs veh, ARL8B / RFU, ZBTB11 / Fold change vs veh, ZBTB11 / RFU, TAMM41 / Fold change vs veh, TAMM41 / RFU, KIAA1704 /// LOC100996395 / Fold change vs veh, KIAA1704 /// LOC100996395 / RFU, ING1 / Fold change vs veh, ING1 / RFU, TRMT61B / Fold change vs veh, TRMT61B / RFU, FUBP3 / Fold change vs veh, FUBP3 / RFU, TP53 / Fold change vs veh, TP53 / RFU, TNKS2 / Fold change vs veh, TNKS2 / RFU, ZFP14 / Fold change vs veh, ZFP14 / RFU, ACTR2 / Fold change vs veh, ACTR2 / RFU, PPP3R1 / Fold change vs veh, PPP3R1 / RFU, PIK3R1 / Fold change vs veh, PIK3R1 / RFU, HNRNPA1 / Fold change vs veh, HNRNPA1 / RFU, RNF170 / Fold change vs veh, RNF170 / RFU, ZNF28 / Fold change vs veh, ZNF28 / RFU, RNGTT / Fold change vs veh, RNGTT / RFU, OGT / Fold change vs veh, OGT / RFU, BRD1 / Fold change vs veh, BRD1 / RFU, MARS / Fold change vs veh, MARS / RFU, ZNF655 / Fold change vs veh, ZNF655 / RFU, FAHD1 / Fold change vs veh, FAHD1 / RFU, BDP1 / Fold change vs veh, BDP1 / RFU, LRRCC1 / Fold change vs veh, LRRCC1 / RFU, ARID1A / Fold change vs veh, ARID1A / RFU, ZNF146 / Fold change vs veh, ZNF146 / RFU, ZNF330 / Fold change vs veh, ZNF330 / RFU, GPN3 / Fold change vs veh, GPN3 / RFU, C9orf123 / Fold change vs veh, C9orf123 / RFU, N4BP2L2 / Fold change vs veh, N4BP2L2 / RFU, ARFIP1 / Fold change vs veh, ARFIP1 / RFU, FAM179B / Fold change vs veh, FAM179B / RFU, BCL10 / Fold change vs veh, BCL10 / RFU, UHRF1BP1L / Fold change vs veh, UHRF1BP1L / RFU, BET1 / Fold change vs veh, BET1 / RFU, CNOT2 / Fold change vs veh, CNOT2 / RFU, ZNF268 / Fold change vs veh, ZNF268 / Fold change vs veh, ZNF507 / RFU, DGCR2 / Fold change vs veh, DGCR2 / RFU, WDSUB1 / Fold change vs veh, WDSUB1 / Fold change vs veh, HSP90B1 /// MIR3652 / RFU, ADSS / Fold change vs veh, ADSS / RFU, GK / Fold change vs veh, GK / RFU, ZNF148 / Fold change vs veh, ZNF148 / RFU, TAF9 / Fold change vs veh, TAF9 / RFU, SLC1A5 / Fold change vs veh, SLC1A5 / RFU, SLMO2 / Fold change vs veh, SLMO2 / RFU, ABCC4 / Fold change vs veh, ABCC4 / RFU, LOC101060439 /// RAP1B / Fold change vs veh, LOC101060439 /// RAP1B / RFU, RFX7 / Fold change vs veh, RFX7 / RFU, GTPBP10 / Fold change vs veh, GTPBP10 / RFU, CNEP1R1 / Fold change vs veh, CNEP1R1 / RFU, BIVM-ERCC5 /// ERCC5 / Fold change vs veh, BIVM-ERCC5 /// ERCC5 / RFU, ILF3 / Fold change vs veh, ILF3 / RFU 11762660_at / Fold change /veh 11762660_at / RFU VCAN (11757783_s_at) / Fold change /veh VCAN (11757783_s_at) / RFU DDX43 (11728927_at) / Fold change /veh DDX43 (11728927_at) / RFU KRT8 (11758188_x_at) / Fold change /veh KRT8 (11758188_x_at) / RFU NKD1 (11759106_at) / Fold change /veh NKD1 (11759106_at) / RFU SRD5A1 (11742802_a_at) / Fold change /veh SRD5A1 (11742802_a_at) / RFU TPSAB1 /// TPSB2 (11721975_s_at) / Fold change /veh TPSAB1 /// TPSB2 (11721975_s_at) / RFU GSTM3 (11746129_a_at) / Fold change /veh GSTM3 (11746129_a_at) / RFU IL23R (11737362_x_at) / Fold change /veh IL23R (11737362_x_at) / RFU TMEM51 (11727254_a_at) / Fold change /veh TMEM51 (11727254_a_at) / RFU PIWIL2 (11732686_x_at) / Fold change /veh PIWIL2 (11732686_x_at) / RFU ORM1 (11744905_x_at) / Fold change /veh ORM1 (11744905_x_at) / RFU CCDC152 (11743942_at) / Fold change /veh CCDC152 (11743942_at) / RFU ECM1 (11717891_a_at) / Fold change /veh ECM1 (11717891_a_at) / RFU IL23R (11748794_a_at) / Fold change /veh IL23R (11748794_a_at) / RFU TNFAIP8L3 (11732012_x_at) / Fold change /veh TNFAIP8L3 (11732012_x_at) / RFU MBOAT4 (11741988_at) / Fold change /veh MBOAT4 (11741988_at) / RFU 11764193_at / Fold change /veh 11764193_at / RFU TMEM53 (11763286_at) / Fold change /veh TMEM53 (11763286_at) / RFU MAGEB2 (11727129_at) / Fold change /veh MAGEB2 (11727129_at) / RFU TMEM200A (11744735_a_at) / Fold change /veh TMEM200A (11744735_a_at) / RFU CCDC152 (11751479_a_at) / Fold change /veh CCDC152 (11751479_a_at) / RFU FAM211A (11726209_a_at) / Fold change /veh FAM211A (11726209_a_at) / RFU RGS16 (11746705_a_at) / Fold change /veh RGS16 (11746705_a_at) / RFU VCAN (11755009_s_at) / Fold change /veh VCAN (11755009_s_at) / RFU RHOB (11743442_s_at) / Fold change /veh RHOB (11743442_s_at) / RFU RGS16 (11720943_a_at) / Fold change /veh RGS16 (11720943_a_at) / RFU RGS16 (11720944_at) / Fold change /veh RGS16 (11720944_at) / RFU, VPS4B / Fold change vs veh, VPS4B / RFU, CREB1 / Fold change vs veh, CREB1 / RFU, DNAJC13 / Fold change vs veh, DNAJC13 / RFU, GNAQ / Fold change vs veh, GNAQ / RFU, CDK5R1 / Fold change vs veh, CDK5R1 / RFU, ZRANB3 / Fold change vs veh, ZRANB3 / RFU, CUL4A / Fold change vs veh, CUL4A / RFU, CCNY / Fold change vs veh, CCNY / RFU, UFL1 / Fold change vs veh, UFL1 / RFU, COG3 / Fold change vs veh, COG3 / RFU, DIAPH2 / Fold change vs veh, DIAPH2 / RFU, SKA2 / Fold change vs veh, SKA2 / RFU, AFF3 / Fold change vs veh, AFF3 / RFU, LMF1 / Fold change vs veh, LMF1 / RFU, IPO11 / Fold change vs veh, IPO11 / RFU, DFFB / Fold change vs veh, DFFB / RFU, FOXP1 / Fold change vs veh, FOXP1 / RFU, CARD8 / Fold change vs veh, CARD8 / RFU, STRN3 / Fold change vs veh, STRN3 / RFU, ADK / Fold change vs veh, ADK / RFU, RASSF2 / Fold change vs veh, RASSF2 / RFU, WIPF1 / Fold change vs veh, WIPF1 / RFU, LARP1B / Fold change vs veh, LARP1B / RFU, RASA1 / Fold change vs veh, RASA1 / RFU, RB1 / Fold change vs veh, RB1 / RFU, PPFIA1 / Fold change vs veh, PPFIA1 / RFU, MAT2A / Fold change vs veh, MAT2A / RFU, CCT5 / Fold change vs veh, CCT5 / RFU, WDR92 / Fold change vs veh, WDR92 / RFU, CUX1 / Fold change vs veh, CUX1 / RFU, TTC7A / Fold change vs veh, TTC7A / RFU, TMEM135 / Fold change vs veh, TMEM135 / RFU, DEPTOR / Fold change vs veh, DEPTOR / RFU, CPM / Fold change vs veh, CPM / RFU, DNAJB6 / Fold change vs veh, DNAJB6 / RFU, CACNA2D3 / Fold change vs veh, CACNA2D3 / RFU, DTX4 / Fold change vs veh, DTX4 / RFU, TFCP2 / Fold change vs veh, TFCP2 / RFU, GMCL1 /// GMCL1P1 / Fold change vs veh, GMCL1 /// GMCL1P1 / RFU, AEBP2 / Fold change vs veh, AEBP2 / RFU, SNHG1 /// SNORD22 /// SNORD25 /// SNORD26 /// SNORD27 /// SNORD28 /// SNORD29 /// SNORD31 / Fold change vs veh, SNHG1 /// SNORD22 /// SNORD25 /// SNORD26 /// SNORD27 /// SNORD28 /// SNORD29 /// SNORD31 / Fold change (Aza/veh), C12orf56 (ProbeSet 11735607_a_at) / Fold change (ACY-1035/veh), C12orf56 (ProbeSet 11735607_a_at) / Fold change (Aza/veh), FGFR1OP (ProbeSet 11751329_s_at) / Fold change (ACY-1035/veh), FGFR1OP (ProbeSet 11751329_s_at) / Fold change (Aza/veh), VPS36 (ProbeSet 11739960_a_at) / Fold change (ACY-1035/veh), VPS36 (ProbeSet 11739960_a_at) / RFU SYPL1 (11715823_x_at) / Fold change /veh SYPL1 (11715823_x_at) / RFU IGFBP7 (11715501_s_at) / Fold change /veh IGFBP7 (11715501_s_at) / RFU REEP3 (11722064_at) / Fold change /veh REEP3 (11722064_at) / RFU IGLL1 (11728026_x_at) / Fold change /veh IGLL1 (11728026_x_at): dose or concentration left out as unconfirmed
Details: ProbeSet 11744854_x_at; LIST B

Nc1ccc(-c2cccs2)cc1NC(=O)c1ccc2c(c1)cc(C1CC1)n2CCN1CCOCC1 [ACY-1035]
Fold change vs veh, ZNF28: 0.85
